# Measured values from PMC6199744, “Development of Chemical Proteomics for the Folateome and Analysis of the Kinetoplastid Folateome” (ACS Infectious Diseases, 2018).
# Read-outs that look alike come from different tables or passages of the source.
# What was measured:
# Type in all cases: binding
# [1] = biological target: T1, HeLa cell extract proteins (Homo sapiens, UniProt Q14566)
# T1 construct: endogenous in cells; host or cells: HeLa cell extract
# T1 sequence (Q14566 1-821): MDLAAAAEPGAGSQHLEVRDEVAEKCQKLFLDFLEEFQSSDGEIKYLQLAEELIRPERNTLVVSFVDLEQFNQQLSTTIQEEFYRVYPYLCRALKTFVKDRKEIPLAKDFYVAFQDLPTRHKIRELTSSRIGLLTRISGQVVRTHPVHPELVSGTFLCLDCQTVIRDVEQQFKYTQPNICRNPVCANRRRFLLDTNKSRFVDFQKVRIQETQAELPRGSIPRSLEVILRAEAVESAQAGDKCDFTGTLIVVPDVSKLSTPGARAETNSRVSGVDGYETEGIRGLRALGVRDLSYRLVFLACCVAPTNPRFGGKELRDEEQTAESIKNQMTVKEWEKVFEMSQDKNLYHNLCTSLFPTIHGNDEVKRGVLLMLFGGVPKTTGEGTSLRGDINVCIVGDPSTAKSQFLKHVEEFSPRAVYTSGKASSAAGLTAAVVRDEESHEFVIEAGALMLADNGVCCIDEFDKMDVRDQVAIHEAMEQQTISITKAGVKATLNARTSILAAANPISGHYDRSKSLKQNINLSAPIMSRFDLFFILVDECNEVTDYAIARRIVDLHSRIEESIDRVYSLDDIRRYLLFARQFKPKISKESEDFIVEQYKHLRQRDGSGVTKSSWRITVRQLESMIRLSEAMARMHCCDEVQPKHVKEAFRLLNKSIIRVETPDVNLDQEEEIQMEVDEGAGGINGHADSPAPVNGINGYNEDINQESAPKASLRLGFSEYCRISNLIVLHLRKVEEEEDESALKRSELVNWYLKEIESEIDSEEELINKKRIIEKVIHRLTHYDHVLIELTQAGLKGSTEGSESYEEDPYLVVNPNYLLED
# [2] = biological target: T2, HeLa cell extract proteins (Homo sapiens, UniProt Q9UPY5)
# T2 construct: endogenous in cells; host or cells: HeLa cell extract
# T2 sequence (Q9UPY5 1-501): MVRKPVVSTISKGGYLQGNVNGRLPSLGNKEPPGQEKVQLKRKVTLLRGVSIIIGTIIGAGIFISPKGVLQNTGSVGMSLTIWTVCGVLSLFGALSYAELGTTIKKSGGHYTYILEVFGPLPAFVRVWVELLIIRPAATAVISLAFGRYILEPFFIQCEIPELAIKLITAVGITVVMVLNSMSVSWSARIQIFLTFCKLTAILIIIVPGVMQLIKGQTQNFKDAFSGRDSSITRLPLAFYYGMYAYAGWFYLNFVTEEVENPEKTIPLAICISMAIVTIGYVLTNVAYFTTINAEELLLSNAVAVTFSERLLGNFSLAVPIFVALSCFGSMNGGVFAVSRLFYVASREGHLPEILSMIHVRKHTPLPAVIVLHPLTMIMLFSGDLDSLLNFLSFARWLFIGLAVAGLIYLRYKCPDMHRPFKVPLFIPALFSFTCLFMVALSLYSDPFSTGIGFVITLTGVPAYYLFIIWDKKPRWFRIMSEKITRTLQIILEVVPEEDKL
# [3] = biological target: T3, HeLa cell extract proteins (Homo sapiens, UniProt Q96LA8)
# T3 construct: endogenous in cells; host or cells: HeLa cell extract
# T3 sequence (Q96LA8 whole entry): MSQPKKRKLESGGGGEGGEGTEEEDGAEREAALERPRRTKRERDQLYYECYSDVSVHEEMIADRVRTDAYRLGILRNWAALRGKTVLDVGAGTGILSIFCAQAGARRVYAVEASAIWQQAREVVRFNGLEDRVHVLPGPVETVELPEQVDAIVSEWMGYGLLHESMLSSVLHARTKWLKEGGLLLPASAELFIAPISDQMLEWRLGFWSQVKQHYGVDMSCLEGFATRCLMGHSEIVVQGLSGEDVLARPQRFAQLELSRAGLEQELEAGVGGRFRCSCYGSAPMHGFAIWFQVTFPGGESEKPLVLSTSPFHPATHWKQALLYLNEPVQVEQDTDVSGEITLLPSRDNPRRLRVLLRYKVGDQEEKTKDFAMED
# [4] = biological target: T4, HeLa cell extract proteins (Homo sapiens, UniProt Q9ULK4)
# T4 construct: endogenous in cells; host or cells: HeLa cell extract
# T4 sequence (Q9ULK4 1-1368): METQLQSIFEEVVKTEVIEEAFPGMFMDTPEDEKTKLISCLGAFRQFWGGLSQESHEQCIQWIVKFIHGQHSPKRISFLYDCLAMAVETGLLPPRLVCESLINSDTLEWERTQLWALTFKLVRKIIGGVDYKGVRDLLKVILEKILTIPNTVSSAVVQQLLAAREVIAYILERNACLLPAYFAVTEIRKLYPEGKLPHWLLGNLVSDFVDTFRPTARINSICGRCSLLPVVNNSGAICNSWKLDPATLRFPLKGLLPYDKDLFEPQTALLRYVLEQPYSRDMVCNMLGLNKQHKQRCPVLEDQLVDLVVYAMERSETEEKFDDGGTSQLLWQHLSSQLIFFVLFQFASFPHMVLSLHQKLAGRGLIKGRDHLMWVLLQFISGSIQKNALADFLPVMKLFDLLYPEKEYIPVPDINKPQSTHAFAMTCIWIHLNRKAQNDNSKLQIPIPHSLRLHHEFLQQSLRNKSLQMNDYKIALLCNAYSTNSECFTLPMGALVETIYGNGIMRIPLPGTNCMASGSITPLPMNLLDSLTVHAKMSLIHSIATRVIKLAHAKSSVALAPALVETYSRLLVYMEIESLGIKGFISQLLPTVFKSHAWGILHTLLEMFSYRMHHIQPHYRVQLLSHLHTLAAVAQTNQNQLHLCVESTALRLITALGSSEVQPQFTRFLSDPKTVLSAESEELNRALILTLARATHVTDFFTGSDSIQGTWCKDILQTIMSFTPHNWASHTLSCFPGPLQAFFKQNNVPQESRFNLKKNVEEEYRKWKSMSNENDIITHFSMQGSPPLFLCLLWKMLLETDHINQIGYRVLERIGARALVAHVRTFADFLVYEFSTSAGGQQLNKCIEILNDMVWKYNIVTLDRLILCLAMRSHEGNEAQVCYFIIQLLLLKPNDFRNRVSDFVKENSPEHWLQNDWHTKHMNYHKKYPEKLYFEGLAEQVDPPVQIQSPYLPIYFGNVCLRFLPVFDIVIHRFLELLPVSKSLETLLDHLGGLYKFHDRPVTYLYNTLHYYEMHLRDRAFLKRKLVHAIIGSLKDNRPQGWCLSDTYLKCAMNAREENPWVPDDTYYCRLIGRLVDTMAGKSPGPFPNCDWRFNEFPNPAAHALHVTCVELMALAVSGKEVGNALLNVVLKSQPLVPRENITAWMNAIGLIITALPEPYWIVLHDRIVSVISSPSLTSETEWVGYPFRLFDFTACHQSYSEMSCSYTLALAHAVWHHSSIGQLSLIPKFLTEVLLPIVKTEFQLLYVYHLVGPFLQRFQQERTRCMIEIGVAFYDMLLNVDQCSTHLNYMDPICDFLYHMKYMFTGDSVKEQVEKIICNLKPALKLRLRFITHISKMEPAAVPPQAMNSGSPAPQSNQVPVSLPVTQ
# [5] = biological target: T5, HeLa cell extract proteins (Homo sapiens, UniProt Q6P1J9)
# T5 construct: endogenous in cells; host or cells: HeLa cell extract
# [6] = HeLa, protein PRMT6 (PROTEIN ARGININE N-METHYLTRANSFERASE 6)
structure (smiles),measurement,setting,value
"Nc1nc2c(c(=O)[nH]1)N(C=O)C(CNc1ccc(C(=O)N[C@@H](CCC(=O)O)C(=O)O)cc1)CN2 (some centres unmarked) [LEU, leucovorin]",fold changes relative to vehicle control,"[1]; HeLa, protein MCM6",1.28
same,fold changes relative to vehicle control,"[2]; HeLa, captured protein SLC7A11",0.96
same,fold changes relative to vehicle control,[3]; [6],1.17
same,fold changes relative to vehicle control,"[4]; HeLa, protein MED23",0.91
same,fold changes relative to vehicle control,"[5]; protein CDC73, HeLa",0.81
NCCCNc1ccc(C(=O)NC(CCC(=O)O)C(=O)O)cc1 (centres unmarked) [compound 7],fold changes relative to vehicle control,"[1]; HeLa, protein MCM6",1.06
same,fold changes relative to vehicle control,"[2]; HeLa, captured protein SLC7A11",0.95
same,fold changes relative to vehicle control,[3]; [6],1.01
same,fold changes relative to vehicle control,"[4]; HeLa, protein MED23",0.97
same,fold changes relative to vehicle control,"[5]; protein CDC73, HeLa",0.76
CCCCCCOc1cccc(Cc2cnc(N)nc2N)c1 [compound 2],fold changes relative to vehicle control,"[1]; protein MCM6, HeLa",2.32
same,fold changes relative to vehicle control,"[2]; captured protein SLC7A11, HeLa",0.92
same,fold changes relative to vehicle control,"[3]; protein PRMT6, HeLa",0.89
same,fold changes relative to vehicle control,"[4]; captured protein MED23, HeLa",1.04
same,fold changes relative to vehicle control,"[5]; protein CDC73, HeLa",1.08
CCCCCCOc1ccc(Cc2cnc(N)nc2N)cc1 [compound 1],fold changes relative to vehicle control,"[1]; protein MCM6, HeLa",1.15
same,fold changes relative to vehicle control,"[2]; captured protein SLC7A11, HeLa",0.98
same,fold changes relative to vehicle control,"[3]; protein PRMT6, HeLa",1.01
same,fold changes relative to vehicle control,"[4]; captured protein MED23, HeLa",0.94
same,fold changes relative to vehicle control,"[5]; protein CDC73, HeLa",1.18
Nc1nc2cccc(-c3ccccc3)c2n1Cc1ccc(Cl)c(Cl)c1 [compound 3],fold changes relative to vehicle control,"[1]; protein MCM6, HeLa",0.91
same,fold changes relative to vehicle control,"[2]; captured protein SLC7A11, HeLa",0.99
same,fold changes relative to vehicle control,"[3]; protein PRMT6, HeLa",0.93
same,fold changes relative to vehicle control,"[4]; captured protein MED23, HeLa",1.1
same,fold changes relative to vehicle control,"[5]; protein CDC73, HeLa",0.88
NCCOCCOCC(=O)Nc1nc2ncc(CNc3ccc(C(=O)NC(CCC(=O)O)C(=O)O)cc3)nc2c(=O)[nH]1 (centres unmarked) [compound 6],fold changes relative to vehicle control,"[1]; HeLa, protein MCM6",1.3
same,fold changes relative to vehicle control,"[2]; HeLa, captured protein SLC7A11",0.93
same,fold changes relative to vehicle control,[3]; [6],0.93
same,fold changes relative to vehicle control,"[4]; HeLa, protein MED23",0.93
same,fold changes relative to vehicle control,"[5]; protein CDC73, HeLa",0.88
"Nc1nc2[nH]cc(CCc3ccc(C(=O)N[C@@H](CCC(=O)O)C(=O)O)cc3)c2c(=O)[nH]1 [PTX, pemetrexed]",fold changes relative to vehicle control,[1],1.05
same,fold changes relative to vehicle control,[2],0.91
same,fold changes relative to vehicle control,[3],1.03
same,fold changes relative to vehicle control,[4],0.95
same,fold changes relative to vehicle control,[5],0.76
